In paper PMC4001449, “Thienoquinolines as Novel Disruptors of the PKCε/RACK2 Protein–Protein Interaction” (Journal of Medicinal Chemistry, 2014):

Legend:
[1] = tested on: PC-3 prostate adenocarcinoma cells; experiment: Cell proliferation (SRB assay), PC-3; format: cell-based, human; details: PC-3, 50 μM, 72 h
Protocol: HeLa cells containing a tetracycline/doxycycline-inducible constitutively active PKCε were described previously.[26] A PathDetect HeLa HLR cell line was obtained from Agilent, Technologies, Wokingham, U.K. PC-3 prostate adenocarcinoma cells were obtained from Dr. Helmut Klocker, Department of Urology, Innsbruck Medical University. For cell proliferation HeLa HLR and PC-3 cells were seeded at ∼10 000 cells per well in 96-well plates. After 4 h various concentrations of 8 were added and left for 72 h. Cell proliferation was determined by the SRB assay.[35]

[2] = target: ERK1 (Homo sapiens, UniProt P27361); experiment: Kinase profiling (Dundee), ERK1; format: biochemical; details: 25 μM solution
[3] = tested on: MARCKS phosphorylation; experiment: MARCKS phosphorylation in HeLa cells (Western blot); format: cell-based; details: 50 μM for 30 min, 100 nM TPA last 10 min
Protocol: Figure 6 Compound 8 inhibits MARCKS phosphorylation, cell proliferation, and invasion following treatment with 8. (A) HeLa cells were starved for 16 h in medium without fetal calf serum. Subsequently, they were treated with 50 μM solution of compound 8 for 30 min and 100 nM TPA for the last 10 min. An amount of 150 μg of protein from lysed cells was loaded onto SDS 8–16% gels. Tubulin was used as loading control. Below a representative blot, a bar graph corresponding to quantitative scans of three independent experiments (±SD) is shown. (B) Cell proliferation following treatment of HeLa and PC-3 cells with 8. The mean values (±SD) of three independent experiments, in which three samples were taken within each experiment, are shown. (C) Invasion of cells through a membrane. Cell invasion was determined as described in Experimental Section. In HeLa cells with a doxycycline-inducible PKCε the expression of PKCε was induced with doxycycline (control + Dox). The mean of three experiments (±SD) is shown: (∗) p = 0.03. The data are normalized to the control (100%). Therefore, the standard deviation for the control is 0.
For PKCε translocation PC-3 cells were starved for 16 h, treated with 8 for 30 min, stimulated with 50 nM TPA for 5 min, lysed, and fractionated with a CNMCS/CNM compartmental protein extraction kit (BioChain Institute, Newark, CA). […]

[4] = target: T1, PKCε (Homo sapiens, UniProt Q02156); experiment: PKC isozyme assay, PKCε; format: biochemical; details: 50 µM, Supp. Figure 2
T1 sequence (Q02156 1-737): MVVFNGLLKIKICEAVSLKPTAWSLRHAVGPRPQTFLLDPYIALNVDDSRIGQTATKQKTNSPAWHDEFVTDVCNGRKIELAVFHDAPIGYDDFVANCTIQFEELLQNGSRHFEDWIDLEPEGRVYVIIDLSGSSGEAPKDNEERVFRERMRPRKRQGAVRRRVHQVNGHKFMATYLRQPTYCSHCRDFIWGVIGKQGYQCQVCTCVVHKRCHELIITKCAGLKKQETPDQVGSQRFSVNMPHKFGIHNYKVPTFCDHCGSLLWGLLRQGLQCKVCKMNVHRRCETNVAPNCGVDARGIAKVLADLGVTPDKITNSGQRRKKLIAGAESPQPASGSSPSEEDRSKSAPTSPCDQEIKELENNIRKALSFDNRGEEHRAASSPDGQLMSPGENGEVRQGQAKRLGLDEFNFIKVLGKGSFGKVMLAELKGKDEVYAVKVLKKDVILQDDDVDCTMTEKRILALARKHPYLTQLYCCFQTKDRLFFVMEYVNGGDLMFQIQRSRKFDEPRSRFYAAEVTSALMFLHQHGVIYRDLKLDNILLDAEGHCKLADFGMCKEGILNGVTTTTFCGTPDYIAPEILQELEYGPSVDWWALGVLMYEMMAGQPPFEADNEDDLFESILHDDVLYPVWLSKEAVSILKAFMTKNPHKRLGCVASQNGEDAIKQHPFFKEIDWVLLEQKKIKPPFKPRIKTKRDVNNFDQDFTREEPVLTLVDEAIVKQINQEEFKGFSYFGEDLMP
Protocol: Supporting Information Figure 2. Effect of compound 8 on PKC isozymes. 50 µM of compound
8 were used in the PKC assays as described in Gruber et al., J. Biochem. 2011, 149, 331-336. *p
= 0.015, **p = 0.0028, ***p = 0.0007. The control is standardized (100%). Therefore, the
standard deviation for the control is 0.
(1 picture or pasted object on this page, not shown here)

[5] = tested on: PKCε; experiment: PKCε translocation by immunofluorescence in PC-3 cells; format: cell-based, human; details: Figure 4
Protocol: PC-3 cells were grown on glass coverslips coated with poly-L-lysine (Sigma-Aldrich). After treatment with 8 for 30 min and with 100 nM TPA for 5 min, the cells were rinsed twice with phosphate buffered saline (PBS) and fixed with filter sterilized 4% (w/v) paraformaldehyde/4% sucrose (w/v) (both from Sigma-Aldrich) in PBS at room temperature for 10 min. Subsequently the cells were washed three times with PBS and permeabilized with 0.2% Triton X-100/0.2% IgG-free BSA in PBS at room temperature for 10 min. After blocking with 5% normal goat serum diluted in PBS as described above for 30 min, cells were incubated with the primary antibodies for PKCε (Santa Cruz; diluted 1:500) in 0.2% Triton X-100/0.2% IgG-free BSA in PBS at 4 °C overnight. Subsequently, the cells were washed three times with the same buffer and incubated with the labeled secondary antibody (Alexa Fluor, Invitrogen, Life Technologies, Carlsbad, CA; 1:4000) at room temperature for 1 h. After three more washes with 0.2% Triton X-100/0.2% IgG-free BSA in PBS, cells were mounted with Mowiol (Sigma-Aldrich) and images were taken with an Olympus BX 50 optical microscope (Olympus Corporation, Tokyo, Japan).

[6] = target: PIM3 (Homo sapiens, UniProt Q86V86); experiment: Kinase profiling (Dundee), PIM3; format: biochemical; details: 25 μM solution

Chain of ERK1 (P27361 whole entry, species assumed): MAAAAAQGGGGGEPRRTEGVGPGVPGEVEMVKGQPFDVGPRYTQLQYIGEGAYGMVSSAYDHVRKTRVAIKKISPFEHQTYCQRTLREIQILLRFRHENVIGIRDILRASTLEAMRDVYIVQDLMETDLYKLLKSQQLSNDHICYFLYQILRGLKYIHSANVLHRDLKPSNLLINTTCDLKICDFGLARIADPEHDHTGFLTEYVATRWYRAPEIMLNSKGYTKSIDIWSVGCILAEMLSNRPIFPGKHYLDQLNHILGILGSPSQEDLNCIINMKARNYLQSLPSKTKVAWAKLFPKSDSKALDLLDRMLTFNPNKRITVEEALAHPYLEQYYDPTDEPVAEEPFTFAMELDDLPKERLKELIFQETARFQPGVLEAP

ERK1 activity, % of control [2]: 55 % of control | Inhibition of PKCε in vitro [4]: does not inhibit | PIM3 activity, % of control [6]: 46 % of control
SMILES: CC(=O)c1cccc(NC(=O)c2sc3nc4cc5c(cc4cc3c2N)OCCO5)c1 [Compound 8, N-(3-acetylphenyl)-9-amino-2,3-dihydro-1,4-dioxino[2,3-g]thieno[2,3-b]quinoline-8-carboxamide]
Inhibition of cell proliferation [1]: did not show any inhibition | Phosphorylation of MARCKS [3]: inhibited | TPA-induced PKCε translocation to the plasma membrane (immunocytochemistry) [5]: prevented
